One experiment deals with Aspergillus fumigatus. The experiment can be described thus: anti-Aspergillus fumigatus growth inhibition test in liquid medium (96-well microplates). In kind it is cell-based. Particulars: for Activity A.f. (relative activity in relation to heliomycin): fold relative to heliomycin; for Activity A.f. (relative activity in relation to Ard1): fold relative to Ard1. As for the experimental part: (§1) The anti-Candida albicans and anti-Aspergillus fumigatus activities of the different analogues were assessed using a growth inhibition test in liquid medium made in 96-well microplates. The activity of the purified peptides was tested for different dilutions of each peptide and was compared with those of heliomycin and Ard1 quantified under the same conditions.
The spores of Aspergillus fumigatus were derived from a stock frozen at −80° C., containing 10^7 spores/ml in a 25% glycerol solution. After slow thawing at room temperature, the spores were placed in suspension in PDB culture medium (12 g Potato Dextrose Broth medium, per […] water). 10 μl of each sample were deposited in the wells of microtitration plates in the presence of 90 μl PDB culture medium supplemented with tetracycline (100 μg/ml) and cefotaxime (1 μg/ml) containing the spores (at a final concentration of 1000 spores/well). Control cultures were systematically made in which 10 μl of sample were replaced by 10 μl of sterile water. Media sterility was controlled by incubating 10 μl sterile water in the presence of 90 μl of medium. The samples were incubated at 37° C. for 24 h to 48 h in a humid atmosphere, and the antifungal activity was quantified by a score of 0 to 9 taking germination account; the size and morphology of the hyphs were determined under the binocular microscope. […].

Another experiment concerns Candida albicans. The experiment is described as follows: anti-Candida albicans growth inhibition test in liquid medium (96-well microplates). Type of experiment: cell-based. Particulars: for Activity C.a. (relative activity in relation to heliomycin): fold relative to heliomycin; for Activity C.a. (relative activity in relation to Ard1): fold relative to Ard1. How it is done:
as §1
The activity test was made directly on yeasts derived from a stock frozen at −80° C., in Sabouraud medium containing 15% glycerol. The density of the yeasts in the stock was adjusted to an optical density of 0.4 OD at 600 nm. After slow thawing at room temperature, the yeast suspension was reduced by dilution to an optic density of 1 mOD at 600 nm in Sabouraud medium, and 90 μl of this dilution were deposited in the wells of microtitration plates in the presence of 10 μl of sample to be tested. Control samples were systematically made in which 10 μl of sample were replaced by 10 μl of sterile water. Media sterility was controlled by incubating 10 μl sterile water in the presence of 90 μl of medium. The samples were incubated at 30° C. for 40 h under slight stirring and the antifungal activity was quantified by measuring optic density at 600 nm.

For experiment [1], the system named is Candida albicans (IHEM 8060 strain). The experiment is described as follows: Candida albicans infected model, lethal in mice (disseminated candidiasis). In kind it is in vivo. The note with it: FIGS. 2-3; for median mortality, time after infection / morbidity score at day 7: 4 injections; for morbidity score at day 7: 50 = all 10 mice healthy. How it is done: Heliomycin and its analogues were tested for in vivo antifungal activity in a model infected with Candida albicans, lethal in mice. The pathogenic agent Candida albicans (IHEM 8060 strain) was inoculated by intravenous route (i.v.) at a dose of 2.5×10^6 CFU/mouse. the peptides were administered by i.v. route in 4 injections 6 h, 24 h, 48 h and 72 h after infection. Assessment criteria for activity were evaluation of survival and morbidity at 7 days. The morbidity scores, which take into account general state of health (condition of fur, mobility, hydration) were determined for each mouse with values ranging from 0 to 5 and defined below: 0=dead, 1=moribund, 2=very ill, 3=ill, 4=slightly ill, 5=healthy. The sum of the individual scores was calculated for each group, a score of 50 for a group of 10 mice meaning that all the mice were healthy.
Following a standard protocol, groups of 10 Swiss OF1 male mice weighing 12 g were infected via i.v. route with a dose of 2.5×10^6 CFU/mouse. Heliomycin and Ard1 were administered by i.v. route in 4 injections, 6 h, 24 h, 48 h and 72 h after infection. For each peptide, 2 doses were tested: 10 mg/kg and 30 mg/kg. A placebo group was injected with peptide solvent, 0.9% sodium chloride.
In this experiment, inoculation of the mice with 2.5.10^6 CFU/mouse was 50% lethal at day 5 in the group which received placebo treatment. The first deaths occurred on post-infection day 2.5 and median mortality occurred on post-infection day 5. On day 7, 5 mice were alive and the morbidity score 15/50.
In this experiment, inoculation of Swiss OF1 mice weighing 15 g with 3.10^6 CFU of Candida albicans induces 50% mortality on day 4 after infection in the group treated with the placebo. The first deaths occur 2.5 days after infection, and 100% of the mice were dead on day 5.5.
In this experiment, inoculation of the mice with 2.5.10^6 CFU/mouse was 50% lethal at day 5 and 100% at day 8 for mice in the placebo group. The first death occurred 3 days after infection. The morbidity score fell rapidly below 30/50 (25/50 at day 2.5).
The pEM35 peptide was administered at doses of 10 and 30 mg/kg/injection with 3 daily doses for 4 days (1 h, 5 h and 10 h post-infection on day 0; at 8 h, 14 h and 20 h on days 1, 2 and 3), i.e., daily doses totalling 30 and 90 mg/kg.

For “NKLIGSCVWGAVNYTSDCNGECKRRGYKGGHCGSFINVNCWCQT [pEM62, peptide derived from heliomycin]”, the “Activity A.f. (relative activity in relation to heliomycin)” value with Aspergillus fumigatus is listed as 2-4. Moreover, the “Activity C.a. (relative activity in relation to heliomycin)” value in the experiment on Candida albicans is recorded as 3-6.
Consider “NKLIGSCVWGAVNYTSDCNGECKRRGYKGGHCGSFLNVNCWCQT [pEM61, peptide derived from heliomycin]”, for which the “Activity A.f. (relative activity in relation to heliomycin)” value with Aspergillus fumigatus is reported as 3-6. Also, in the experiment with Candida albicans, the “Activity C.a. (relative activity in relation to heliomycin)” value was 5-10.
Turning to `Cc1cc(O)c2c3c4c(cc(O)c13)C(C)(C)C(=O)c1c(O)cc(O)c(c1-4)C2=O` [Heliomycin, reference compound], in experiment [1] (10 mg/kg i.v.), the “median mortality, time after infection” value stood at 48 h and the “morbidity score at day 7” value is 0/50. Besides, in experiment [1] (30 mg/kg i.v.), the “median mortality, time after infection” value is given as 60 h and the “morbidity score at day 7” value is given as 5/50. Also, in experiment [1] (2.5×10^6 CFU/mouse i.v., 10 and 30 mg/kg i.v., 4 injections 6, 24, 48, 72 h, 10 mice, placebo 100% lethal day 4), the “effect on survival rate” value is recorded as “no significant effect”.
On to “DKLIGSCVWGAVNYTSDCNGECKRRGYKGGHCGSFANVNCWCER [pEM7, peptide derived from heliomycin]”, for which the “Activity A.f. (relative activity in relation to heliomycin)” value with Aspergillus fumigatus stood at 1. For the same molecule, the “Activity C.a. (relative activity in relation to heliomycin)” value with Candida albicans is reported as 4-8.
“DKLIGSCVWGAVNYTSDCNGECKRRGYKGGHCGSFLNVNCWCET [pEM25, peptide derived from heliomycin]”: in the experiment on Aspergillus fumigatus, the “Activity A.f. (relative activity in relation to heliomycin)” value was found to be 6. Further, the “Activity C.a. (relative activity in relation to heliomycin)” value in the experiment with Candida albicans is listed as 10.
For “DKLIGTCVWGAVNYTSDCNGECKRRGYKGGHCGSFANVNCWCET [pEM38, peptide derived from heliomycin]”, the “Activity A.f. (relative activity in relation to heliomycin)” value in the experiment with Aspergillus fumigatus was determined as 1. The “Activity C.a. (relative activity in relation to heliomycin)” value in the experiment on Candida albicans was determined as 1.
With “NKLIGSCVWGAVNYTSNCNAECKRRGYKGGHCGSFANVNCWCET [pEM40, peptide derived from Ard1]”, the “Activity A.f. (relative activity in relation to Ard1)” value with Aspergillus fumigatus was found to be 1. Further, in the experiment on Candida albicans, the “Activity C.a. (relative activity in relation to Ard1)” value came to 2.
“DKLIGSCVWGAVNYTSNCNAECKRRGYKGGHCGSFINVNCWCQT [pEM47, peptide derived from Ard1]”: in the experiment with Aspergillus fumigatus, the “Activity A.f. (relative activity in relation to Ard1)” value came to 8. Also, the “Activity C.a. (relative activity in relation to Ard1)” value with Candida albicans is recorded as 2-4.
As to “DKLIGSCVWGAVNYTRNCNAECKRRGYKGGHCGSFANVNCWCET [pEM50, peptide derived from Ard1]”, in the experiment on Aspergillus fumigatus, the “Activity A.f. (relative activity in relation to Ard1)” value was 1. Moreover, in the experiment with Candida albicans, the “Activity C.a. (relative activity in relation to Ard1)” value is reported as 1-2.
In the same order, the values of “DKLIGSCVWLAVNYTSNCNAECKRRGYKGGHCGSFANVNCWCET [pEM56, peptide derived from Ard1]” are 0.5 and 1-2.
Regarding “NKLIGSCVWGAVNYTSDCNGECKRRGYKGGHCGSFANVNCWCET [pEM37, peptide derived from heliomycin]”, the “Activity C.a. (relative activity in relation to heliomycin)” value with Candida albicans came to 2.
For the molecule “DKLIGSCVWGAVNYTSNCNAECKRRGYKGGHCGSFLNINCWCET [pEM34, peptide derived from Ard1]”, the “Activity A.f. (relative activity in relation to Ard1)” value in the experiment on Aspergillus fumigatus came to 4. For the same molecule, the “Activity C.a. (relative activity in relation to Ard1)” value in the experiment with Candida albicans came to 4.
On to “DKLIGSCVWLAVNYTSNCNAECKRRGYKGGHCGSFANVNCWCQT [pEM57, peptide derived from Ard1]”, for which the “Activity A.f. (relative activity in relation to Ard1)” value with Aspergillus fumigatus is 8. The “Activity C.a. (relative activity in relation to Ard1)” value in the experiment with Candida albicans was 1.
For the molecule “DKLIGSCVWGAVNYTSRCNAECKRRGYKGGHCGSFANVNCWCET [pEM52, peptide derived from Ard1]”, the “Activity A.f. (relative activity in relation to Ard1)” value with Aspergillus fumigatus is 0.5. Also, the “Activity C.a. (relative activity in relation to Ard1)” value with Candida albicans was 1-2.
In the case of “DKLIGSCVWGAVNYTSDCRGECKRRGYKGGHCGSFANVNCWCET [pEM44, peptide derived from heliomycin]”, in the experiment with Aspergillus fumigatus, the “Activity A.f. (relative activity in relation to heliomycin)” value was 2. Moreover, the “Activity C.a. (relative activity in relation to heliomycin)” value with Candida albicans is given as 8.
In the case of “DKLIGSCVWLAVNYTSNCNAECKRRGYKGGHCGSFLNVNCWCET [pEM54, peptide derived from Ard1]”, the “Activity A.f. (relative activity in relation to Ard1)” value with Aspergillus fumigatus is 1. In addition, in the experiment with Candida albicans, the “Activity C.a. (relative activity in relation to Ard1)” value is on record as 1.
“DKLIGSCVWGAVNYTSNCNAECKRRGYKGGHCGSFINVNCWCER [pEM49, peptide derived from Ard1]”: the “Activity A.f. (relative activity in relation to Ard1)” value with Aspergillus fumigatus is 1-2. In addition, in the experiment on Candida albicans, the “Activity C.a. (relative activity in relation to Ard1)” value stood at 3.
For “NKLIGSCVWGAVNYTSDCNGECKRRGYKGGHCGSFANVNCWCQT [pEM39, peptide derived from heliomycin]”, the “Activity A.f. (relative activity in relation to heliomycin)” value in the experiment on Aspergillus fumigatus is given as 4-8. Moreover, the “Activity C.a. (relative activity in relation to heliomycin)” value with Candida albicans came to 2.
Consider “DKLIGSCVWGAVNYTSNCNAECKRRGYKGGHCGSFINVNCWCET [pEM32, peptide derived from Ard1]”, for which the “Activity A.f. (relative activity in relation to Ard1)” value with Aspergillus fumigatus was determined as 2. In addition, the “Activity C.a. (relative activity in relation to Ard1)” value in the experiment with Candida albicans stood at 1.
Take “DKLIGSCVWGAVNYTRDCNGECKRRGYKGGHCGSFANVNCWCET [pEM42, peptide derived from heliomycin]”: in the experiment on Aspergillus fumigatus, the “Activity A.f. (relative activity in relation to heliomycin)” value is given as 1. In addition, in the experiment with Candida albicans, the “Activity C.a. (relative activity in relation to heliomycin)” value came to 8.
With “DKLIGSCVWGAVNYTSDCNGECKRRGYKGGHCGSFINVNCWCET [pEM22, peptide derived from heliomycin]”, the “Activity A.f. (relative activity in relation to heliomycin)” value in the experiment on Aspergillus fumigatus is given as 4-8. Also, the “Activity C.a. (relative activity in relation to heliomycin)” value with Candida albicans was 1-2.
With “DKLIGSCVWGAVNYTSDCNGECKRRGYKGGHCGSFANINCWCET [pEM23, peptide derived from heliomycin]”, the “Activity A.f. (relative activity in relation to heliomycin)” value in the experiment on Aspergillus fumigatus turned out to be 2. Also, the “Activity C.a. (relative activity in relation to heliomycin)” value with Candida albicans is given as 1.
For “DKLIGSCVWGAVNYTSDCNGECKRRGYKGGHCGSFANVNCWCQT [pEM21, peptide derived from heliomycin]”, in that order: 10-20 and 2.
For “DKLIGSCVWGAVNYTTDCNGECKRRGYKGGHCGSFANVNCWCET [pEM43, peptide derived from heliomycin]”, in that order: 2 and 1.
As to “DKLIGSCVWLAVNYTSNCNAECKRRGYKGGHCGSFLNVNCWCQT [pEM55, peptide derived from Ard1]”, the “Activity A.f. (relative activity in relation to Ard1)” value in the experiment on Aspergillus fumigatus is given as 2-7. Also, the “Activity C.a. (relative activity in relation to Ard1)” value in the experiment with Candida albicans is listed as 1-2.
In the case of “DKLIGSCVWGAVNYTSNCNAECKRRGYKGGHCGSFANINCWCET [pEM33, peptide derived from Ard1]”, the “Activity A.f. (relative activity in relation to Ard1)” value in the experiment with Aspergillus fumigatus was found to be 1. Further, the “Activity C.a. (relative activity in relation to Ard1)” value with Candida albicans was found to be 1.
